System: not listed separately
Assay: Ratio of EC50 for HCV genotype 1a H77c replicon cells to IC50 for HCV genotype 1b wild type NS5B polymerase
Conditions: not given
In the case of `COc1ccc2c(c1)[C@@H]1C[C@]1(C(=O)N1CC34COCC3(CN(C(C)=O)C4)C1)Cn1c-2c(C2CCCCC2)c2ccc(C(=O)NS(=O)(=O)C(C)C)cc21` (stereo partly drawn), the Ratio is reported as 14. `COc1ccc2c(c1)[C@@H]1C[C@]1(C(=O)N1CC34COCC3(CN(C(C)=O)C4)C1)Cn1c-2c(C2CCCCC2)c2ccc(C(=O)NS(=O)(=O)N(C)C)cc21` (stereo partly drawn) showed a Ratio of 4. In the case of `CNC(=O)N1CC23COCC2(C1)CN(C(=O)[C@]12C[C@H]1c1cc(OC)ccc1-c1c(C4CCCCC4)c4ccc(C(=O)NS(=O)(=O)C(C)C)cc4n1C2)C3` (stereo partly drawn), the Ratio is reported as 66. `CNC(=O)N1CC23COCC2(C1)CN(C(=O)[C@]12C[C@H]1c1cc(OC)ccc1-c1c(C4CCCCC4)c4ccc(C(=O)NS(=O)(=O)N(C)C)cc4n1C2)C3` (stereo partly drawn) showed a Ratio of 43.

System: Liver
Assay: Drug uptake in rat liver 10 mg/kg, po after 6 hrs
Assay type: ADME, organism-based
Set-up: dose 10 mg/kg, route oral
Conditions: in vivo, 6 h, BLD = below limit of detection
For `COc1ccc2c(c1)[C@@H]1C[C@]1(C(=O)N1CC34COCC3(CN(C(C)=O)C4)C1)Cn1c-2c(C2CCCCC2)c2ccc(C(=O)NS(=O)(=O)N(C)C)cc21` (stereo partly drawn), the Drug uptake was “BLD”.

Target: not listed separately
Assay: Inhibition of HCV genotype 1b wild type NS5B polymerase using biotinylated oligo dT12 primer as substrate after 4 hrs in presence of [3H]UTP
Set-up: species or system Hepatitis C virus subtype 1b
Conditions: not given
`COc1ccc2c(c1)[C@@H]1C[C@]1(C(=O)N1CC34COCC3(CN(C(C)=O)C4)C1)Cn1c-2c(C2CCCCC2)c2ccc(C(=O)NS(=O)(=O)C(C)C)cc21` (stereo partly drawn) showed an IC50 of 3 nM. In the case of `COc1ccc2c(c1)[C@@H]1C[C@]1(C(=O)N1CC34COCC3(CN(C(C)=O)C4)C1)Cn1c-2c(C2CCCCC2)c2ccc(C(=O)NS(=O)(=O)N(C)C)cc21` (stereo partly drawn), the IC50 is reported as 2 nM. `CNC(=O)N1CC23COCC2(C1)CN(C(=O)[C@]12C[C@H]1c1cc(OC)ccc1-c1c(C4CCCCC4)c4ccc(C(=O)NS(=O)(=O)C(C)C)cc4n1C2)C3` (stereo partly drawn) gave an IC50 of 3 nM. With `CNC(=O)N1CC23COCC2(C1)CN(C(=O)[C@]12C[C@H]1c1cc(OC)ccc1-c1c(C4CCCCC4)c4ccc(C(=O)NS(=O)(=O)N(C)C)cc4n1C2)C3` (stereo partly drawn) the IC50 was 2 nM.

System: Plasma
Assay: Plasma concentration in rat at 5 mg/kg, iv after 6 hrs
Assay type: ADME, organism-based
Set-up: dose 5 mg/kg, route intravenous
Conditions: in vivo, 6 h, BLD = below limit of detection
In the case of `COc1ccc2c(c1)[C@@H]1C[C@]1(C(=O)N1CC34COCC3(CN(C(C)=O)C4)C1)Cn1c-2c(C2CCCCC2)c2ccc(C(=O)NS(=O)(=O)N(C)C)cc21` (stereo partly drawn), the Cp is reported as “BLD”.

System: Plasma
Assay: Plasma concentration in rat at 10 mg/kg, po after 6 hrs
Assay type: ADME, organism-based
Set-up: dose 10 mg/kg, route oral
Conditions: in vivo, 6 h, BLD = below limit of detection
For `COc1ccc2c(c1)[C@@H]1C[C@]1(C(=O)N1CC34COCC3(CN(C(C)=O)C4)C1)Cn1c-2c(C2CCCCC2)c2ccc(C(=O)NS(=O)(=O)N(C)C)cc21` (stereo partly drawn), the Cp was “BLD”.

System: not listed separately
Assay: Clearance in rat after 6 hrs
Assay type: ADME, organism-based
Conditions: in vivo
With `COc1ccc2c(c1)[C@@H]1C[C@]1(C(=O)N1CC34COCC3(CN(C(C)=O)C4)C1)Cn1c-2c(C2CCCCC2)c2ccc(C(=O)NS(=O)(=O)N(C)C)cc21` (stereo partly drawn) the clearance was 19 mL/min/kg.

System: not listed separately
Assay: Cytotoxicity against human HuH7 cells after 3 days by Alamar blue assay
Assay type: cell-based, Huh-7
Conditions: not given
`COc1ccc2c(c1)[C@@H]1C[C@]1(C(=O)N1CC34COCC3(CN(C(C)=O)C4)C1)Cn1c-2c(C2CCCCC2)c2ccc(C(=O)NS(=O)(=O)N(C)C)cc21` (stereo partly drawn) showed a CC50 at 72 h of 24 µM.

System: not listed separately
Assay: Cytotoxicity against human HuH7 cells after 4 hrs by CellTitre-Blue assay
Assay type: cell-based, Huh-7
Conditions: not given
Molecule `COc1ccc2c(c1)[C@@H]1C[C@]1(C(=O)N1CC34COCC3(CN(C(C)=O)C4)C1)Cn1c-2c(C2CCCCC2)c2ccc(C(=O)NS(=O)(=O)C(C)C)cc21` (stereo partly drawn) has a CC50 at 4 h of over 100 µM. Work on `CNC(=O)N1CC23COCC2(C1)CN(C(=O)[C@]12C[C@H]1c1cc(OC)ccc1-c1c(C4CCCCC4)c4ccc(C(=O)NS(=O)(=O)C(C)C)cc4n1C2)C3` (stereo partly drawn) yielded a CC50 at 4 h of over 100 µM. With `CNC(=O)N1CC23COCC2(C1)CN(C(=O)[C@]12C[C@H]1c1cc(OC)ccc1-c1c(C4CCCCC4)c4ccc(C(=O)NS(=O)(=O)N(C)C)cc4n1C2)C3` (stereo partly drawn) the CC50 at 4 h was 96 µM.

System: Hepatitis C virus
Assay: Antiviral activity against HCV genotype 1a H77c infected in human HuH7 cells after 3 days by luciferase reporter gene assay
Assay type: functional, cell-based, Hepacivirus hominis
Conditions: Huh-7, 72 h
In the case of `COc1ccc2c(c1)[C@@H]1C[C@]1(C(=O)N1CC34COCC3(CN(C(C)=O)C4)C1)Cn1c-2c(C2CCCCC2)c2ccc(C(=O)NS(=O)(=O)C(C)C)cc21` (stereo partly drawn), the EC50 is reported as 42 nM. Molecule `COc1ccc2c(c1)[C@@H]1C[C@]1(C(=O)N1CC34COCC3(CN(C(C)=O)C4)C1)Cn1c-2c(C2CCCCC2)c2ccc(C(=O)NS(=O)(=O)N(C)C)cc21` (stereo partly drawn) has an EC50 of 8 nM. Work on `CNC(=O)N1CC23COCC2(C1)CN(C(=O)[C@]12C[C@H]1c1cc(OC)ccc1-c1c(C4CCCCC4)c4ccc(C(=O)NS(=O)(=O)C(C)C)cc4n1C2)C3` (stereo partly drawn) yielded an EC50 of 200 nM. `CNC(=O)N1CC23COCC2(C1)CN(C(=O)[C@]12C[C@H]1c1cc(OC)ccc1-c1c(C4CCCCC4)c4ccc(C(=O)NS(=O)(=O)N(C)C)cc4n1C2)C3` (stereo partly drawn) showed an EC50 of 86 nM.

System: not listed separately
Assay: Permeability of the compound at pH 7.4 by PAMPA
Assay type: physicochemical
Conditions: read-out: permeability
In the case of `CNC(=O)N1CC23COCC2(C1)CN(C(=O)[C@]12C[C@H]1c1cc(OC)ccc1-c1c(C4CCCCC4)c4ccc(C(=O)NS(=O)(=O)C(C)C)cc4n1C2)C3` (stereo partly drawn), the Papp is reported as 1.8 ×10⁻⁶ cm/s. `CNC(=O)N1CC23COCC2(C1)CN(C(=O)[C@]12C[C@H]1c1cc(OC)ccc1-c1c(C4CCCCC4)c4ccc(C(=O)NS(=O)(=O)N(C)C)cc4n1C2)C3` (stereo partly drawn) showed a Papp of 3.7 ×10⁻⁶ cm/s.

System: Liver
Assay: Drug uptake in rat liver at 5 mg/kg, iv after 6 hrs
Assay type: ADME, organism-based
Set-up: dose 5 mg/kg, route intravenous
Conditions: in vivo, 6 h, BLD = below limit of detection
For `COc1ccc2c(c1)[C@@H]1C[C@]1(C(=O)N1CC34COCC3(CN(C(C)=O)C4)C1)Cn1c-2c(C2CCCCC2)c2ccc(C(=O)NS(=O)(=O)N(C)C)cc21` (stereo partly drawn), the Drug uptake was “BLD”.

From ChEMBL document CHEMBL3232986, “Identification of a novel series of potent HCV NS5B Site I inhibitors” (Bioorg Med Chem Lett, 2014)
